Experiment: in vitro
Details: human, hela cells, % viability

In order of rising viability at 28.5 h, 10 µM:
1. Cc1nn(C)c(C)c1CN(C)C(=O)c1cc(-c2ccc(F)cc2)on1 [CBK281587]  82.2%
2. CC(C)(C)OC(=O)N1CCC(C(Cc2ccc(-c3ccc(S(C)(=O)=O)cc3)cc2)C(=O)NCCOCCO)CC1 (stereo not shown) [CBK173128]  83.7%
3. CCNC(=O)N[C@H]1CC[C@]2(C)CCC([C@H](C)C(=O)N3CCCCC3)[C@H](O)[C@H]2[C@@H]1C (stereo partly shown) [CBK289455]  84.7%
4. O=C(Nc1cccc2[nH]ccc12)c1ccc2c(c1)OCCO2 [CBK159657]  85.7%
5. c1cncc(-c2cnn(-c3ccc4[nH]ccc4c3)n2)c1 [CBK112820]  85.7%
6. CNC(=O)C1(Cc2ccc(-c3ccccc3)cc2)CCN(C(=O)c2ccccc2OC)CC1 [CBK285767]  85.9%
7. CCC1(CC)OC(NCc2ccccc2)=NC1=O [CBK122636]  86.2%
8. NC(=O)c1cccc(-n2cc(-c3ccsc3)nn2)c1 [CBK113076]  86.4%
9. Cc1cc(CC(=O)NCCc2c[nH]c3ccc(Cl)cc23)on1 [CBK159774]  86.4%
10. CC(NC(=O)CCC1CCCC1)c1nc(-c2ccncc2)cs1 (stereo not shown) [CBK305819]  86.9%
11. C=CCOc1ccc(-c2nnn(CC(=O)O)n2)cc1 [CBK269772]  87.8%
12. COc1ccc(/C=C/C(=O)O)cc1S(=O)(=O)N1CCCCCC1 [CBK263565]  87.8%
13. O=C(O)CC(c1ccccc1)c1ccc2c(c1)OCO2 (stereo not shown) [CBK286983]  87.8%
14. NC(=O)c1c(NC(=O)c2cnn3cccnc23)sc2c1CCCC2 [CBK268437]  87.8%
15. OC(COCc1ccc(Cl)cc1)CN1CCN(c2cccc(Cl)c2)CC1 (stereo not shown) [CBK278315C]  87.9%
16. COc1ccc(CCNC(=O)NS(=O)(=O)c2ccc(C)cc2)cc1OC [CBK300510]  88%
17. O=C1NC(c2ccccc2)=NC1(NS(=O)(=O)c1ccccc1)C(F)(F)F (stereo not shown) [CBK267474]  88.3%
18. Cc1c(CCC(=O)N2CCCC(C(=O)O)C2)c(=O)oc2c(C)c(O)ccc12 (stereo not shown) [CBK286764]  88.5%
19. O=C(Cn1cccc(C(=O)Nc2cc(F)ccc2N2CCCC2)c1=O)NC1CCCCC1 [CBK286008]  88.9%
20. Cc1csc(CCNCc2c(C(C)C)nn(C)c2N(C)C)n1 [CBK304140]  89%
21. Cc1c(F)cccc1CN(CCCN)C(=O)Nc1ccccc1C(C)(C)C [CBK034699C]  89.3%
22. Cc1occc1C(=O)Nc1cnn(CCCC(=O)O)c1 [CBK270116]  89.4%
23. CN(C)Cc1cc(C[C@@H]2C[C@H](NC(=O)c3ccnc(Cl)c3)C2(C)C)no1 [CBK289311]  89.6%
24. CC1CN(S(=O)(=O)C(C)C)CCC1NCc1ccncc1 (stereo not shown) [CBK304870]  89.6%
25. N#C/C(=C/c1ccc(Sc2ccc(Cl)cc2)o1)c1ccc(C(=O)O)cc1 [CBK268996]  89.8%
26. Cc1ccc(NS(=O)(=O)c2cc(C(=O)Nc3ccc(S(=O)(=O)N4CCCC4)cc3)ccc2C)cc1 [CBK268784]  89.8%
27. COc1cnc(/C=C\c2ccccc2)c(NC(=O)c2ccco2)n1 [CBK145361]  90.4%
28. Cc1ccc(CCC(=O)NNc2ccccc2)o1 [CBK260924]  90.5%
29. COc1ccc(C(=O)Nc2nnc[nH]2)cc1 [CBK025569]  90.8%
30. CCc1n[nH]c(C2CN(Cc3nc4c(F)cccc4[nH]3)CCO2)n1 (stereo not shown) [CBK304117]  90.9%
31. C[C@@H](c1ccccc1)N1C(=O)[C@@H]2CN(S(=O)(=O)c3cccs3)CCN2C1=O [CBK289635]  91.3%
32. CC(C)(CNS(=O)(=O)c1ccc(Cl)cc1)OCc1ccccc1 [CBK262088]  91.4%
33. Nc1nc(SCC(=O)N2CCC(c3noc4ccc(F)cc34)CC2)n[nH]1 [CBK267326]  91.4%
34. Cn1ccnc1C1(O)CCN(C(=O)c2ccc(F)cc2)CC1 [CBK283541]  91.5%
35. Cc1ccc(N(Cc2ccco2)C(=O)c2cccc(S(=O)(=O)N(C)C)c2)cc1 [CBK267578]  91.6%
36. CN(C)C(=O)c1ccc(-c2cnc(N)c(-c3ccc(O)cc3)n2)cc1 [CBK116686]  91.7%
37. COc1nnc(-c2ccc(C)cc2)c2ccccc12 [CBK263466]  92%
38. O=C(O)/C=C\c1cn(-c2ccccc2)nc1-c1cc2ccccc2o1 [CBK265257]  92.7%
39. CN1CCC(C(=O)NC(=O)Nc2ccccc2F)CC1 [CBK034827]  93.2%
40. COc1ccc(COc2nc3ccccc3nc2NC(C)C)cc1OC [CBK116610]  93.5%
41. Cc1cc2c(cc1C)C(O)CC1(CCN(CC(=O)NC3CCCCC3)CC1)O2 (stereo not shown) [CBK286399]  94%
42. Cc1oc2ncn(Cc3ccccc3)c(=N)c2c1C [CBK288160]  94.4%
43. Nc1ncc(-c2ccc3c(c2)OCO3)nc1Nc1ccc2[nH]ccc2c1 [CBK063667]  94.6%
44. O=C(O)Cc1ccc(-n2c(S)nnc2-c2ccncc2)cc1 [CBK268860]  94.9%
45. CCNc1ncc(C(=O)N2CCOC(c3ccc(F)c(C)c3)C2)s1 (stereo not shown) [CBK306375]  95.4%
46. COc1ccc(S(=O)(=O)Nc2ccc(S(=O)(=O)Nc3nccs3)cc2)c([N+](=O)[O-])c1 [CBK266801]  95.6%
47. CC(=O)N1c2ccccc2C(C)(c2ccc(Br)cc2)CC1(C)C (stereo not shown) [CBK026461]  95.8%
48. Cc1sc2ncn(CC(=O)NCCCN3CCCCC3)c(=O)c2c1C [CBK305831]  96.7%
49. O=C(CC1CC1)N1CCCC2(CCN(C(=O)c3cc(F)c(F)cc3F)C2)C1 (stereo not shown) [CBK131531]  96.7%
50. Cc1c(C(=O)N2CCC(N3CCSCC3)CC2)[nH]c2c(F)cccc12 [CBK307065]  96.8%
51. Cc1cccc(CSc2nc3ncccc3[nH]2)c1 [CBK287963]  96.9%
52. Cc1c(C)n(CC(O)CNCc2ccco2)c2ccccc12 (stereo not shown) [CBK263970G]  97%
53. Cc1cc(C)n(-c2ccc3nnc(CCC(=O)O)n3n2)n1 [CBK307616]  97%
54. COc1cccc(/C=N\NC(=O)CN2CCN(Cc3ccccc3)CC2)c1O [CBK263106]  97.1%
55. COc1ccc(-c2nc(NC(=O)C3CC3)cnc2-c2cccc(C(F)(F)F)c2)cc1 [CBK036852]  98%
56. Cc1nc(CN2CCC(O)(c3ccccc3F)CC2)c2ccccn12 [CBK282799]  98.1%
57. CN(C)C(=O)CN1C(=O)N2CCCN=C2c2ccc(Cl)cc21 [CBK284392]  98.2%
58. FC(F)(F)c1ccnc(Sc2cccc(Cl)c2)n1 [CBK115247]  98.5%
59. O=C(Cc1cccs1)N1CCC(c2nnc(-c3ccccc3)c(-c3ccccc3)n2)CC1 [CBK286283]  98.8%
60. O=C(Cc1ccccc1)N1CCc2c([nH]c3ccccc23)C12CCNC2 (stereo not shown) [CBK059461]  98.9%
61. COc1cccc(/C=C2/SC(=S)NC2=O)c1OCCCOc1ccccc1C [CBK264442]  98.9%
62. O=C(c1ccccc1)c1ccccc1-n1nccn1 [CBK013849]  99%
63. CC(=O)Nc1nc(-c2ccccc2C)ccc1C(=O)NC1CCCCC1 [CBK106327]  99%
64. O=C(NCc1ccccc1)c1ccc(NC(=O)c2cc(-n3cnnc3)ccc2Cl)cc1 [CBK267896]  99.2%
65. COCCc1noc(C(C)NC(=O)Cc2cccc(O)c2)n1 (stereo not shown) [CBK307493]  99.5%
66. O=C1N[C@@H]2CCN(C(=O)C3CC3)[C@@H]2C(=O)N1c1ccc(F)cc1 [CBK289324]  99.6%
67. CCCc1nc(NC(C)=O)c(C#N)c(-c2ccco2)c1CC [CBK018074]  100%
68. O=C(CSCc1c(Cl)cccc1Cl)NN1C(=O)c2ccccc2C1=O [CBK267800]  101%
69. Cn1cc(CN2CCCN(C(=O)c3ccc4ccccc4n3)CC2)cn1 [CBK305369]  102%
70. Cc1ccc(SCC(=O)NCc2nc(-c3ccccc3)no2)cc1 [CBK269474]  102%
71. CC(=O)Nc1ccc(CN[C@@H]2CCC[C@H]2Cc2cc(C)no2)cc1 [CBK285459]  102%
72. CC(C)C(=O)N1CC2(CCN(Cc3cccc(C(F)(F)F)c3)CC2)c2ccccc21 [CBK126716]  102%
73. Cc1nc2ccc(C(=O)NC(c3ccccc3)c3cccnc3)cc2[nH]1 (stereo not shown) [CBK283259]  103%
74. CC(C)(c1ccc(Oc2ccc3c(c2)C(=O)N(c2nccs2)C3=O)cc1)c1ccc(Oc2ccc3c(c2)C(=O)N(c2nccs2)C3=O)cc1 [CBK262258]  103%
75. CNc1nc(C)c(C(=O)N2CCCC(COc3ccc(F)cc3)C2)s1 (stereo not shown) [CBK307234]  103%
76. Cc1cc(CN2CCN(S(=O)(=O)c3ccc(C(F)(F)F)cc3Cl)CC2)cc(C)c1O [CBK063074]  103%
77. Cc1ccc(OCC(=O)NC(=S)Nc2cc(-c3nc4ncccc4o3)ccc2Cl)cc1 [CBK265214]  103%
78. Nc1cccc(-c2nccnc2NCc2cccnc2)c1 [CBK089310]  105%
79. Nc1ncc(Br)nc1N1CCC[C@@H]1CO [CBK085450]  105%
80. O=C(NNC(=O)C(O)c1ccccc1)NC1CCCCC1 (stereo not shown) [CBK262625]  106%
81. CCC(Sc1nc2ccc(F)cc2[nH]1)C(=O)O (stereo not shown) [CBK287174]  106%
82. OCC1CCCN1c1nccnc1-c1cccc(O)c1 (stereo not shown) [CBK089052]  109%
83. Cn1ccnc1C1(O)CCN(C(=O)Nc2ccccc2F)CC1 [CBK282280]  112%
84. O=C(NC1CCCC1)c1ccc(-c2cnc3[nH]c(=O)n(C4CCCCC4)c3n2)cc1 [CBK064582]  113%
85. Cc1ccc(S(N)(=O)=O)cc1C(=O)OCC(=O)c1ccccc1 [CBK264588]  113%
86. CCCc1ccc(S(=O)(=O)Nc2cccc(C(=O)N3CCN(C)CC3)c2)cc1 [CBK039034]  122%

Same assay, conditions: human, hela cells, % viability, bulk resorufin, single well

In order of rising viability at 28.5 h, 10 µM:
1. CCOC(=O)N1CCC2(CC1)Oc1ccc(-c3cc(OC)c(OC)c(OC)c3)cc1O2 [CBK090282]  90.9%
2. COc1cccc2c1OC1(CCN(C(=O)c3ccno3)CC1)OC2 [CBK061071]  97%

— article PMC12040169 (PLOS Biology, 2025)
